These results are taken from ChEMBL document CHEMBL1201862, “PubChem BioAssay data set” (2004).

Among the test systems are SW-620; UO-31; HT-29; SNB-75; SK-MEL-2; HOP-62; CCRF-CEM; NCI-H226; MOLT-4; A498; OVCAR-5; COLO 205; NCI-H522; SK-MEL-28; Malme-3M; RPMI-8226; HOP-92.
Common to all, as to assay: inhibition of tumour cell growth, NCI panel, 48 h

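Dose response: 5 concentrations. Exposure: 48 h. Format: 96-well plates. Endpoint: linear interpolation; highest concentration if not reached. At the GI50, growth is halved.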 Calls of active or inactive are those of the source. Cut-off read from the data, not from the text of the source: active = GI50 up to about 1.1 µM and inactive = higher.

`COc1cc(C)c(O)c(C(=O)O)c1`: the GI50 in the test with SW-620, with UO-31, in the test with HT-29, with SNB-75, in the test on SK-MEL-2 and in the test with HOP-62 was > 100 µM (inactive) throughout. The GI50 in the test with CCRF-CEM, in the test with NCI-H226, in the test on MOLT-4, with A498, in the test on OVCAR-5 and in the test with COLO 205 was > 100 µM (inactive) throughout. Moreover, the GI50 in the test on NCI-H522, in the test with SK-MEL-28 and in the test with Malme-3M was > 100 µM (inactive) in each case.

In the case of `C=CC1(NS(=O)(=O)c2ccc(C)cc2)CCC(C(C)(C)C)CC1` (configuration not stated), the GI50 in the test with SW-620 is > 100 µM (inactive); in the test on UO-31 it was > 100 µM (inactive); in the test on SNB-75 it was 17.8 µM (inactive); in the test on RPMI-8226, 17.5 µM (inactive); in the test with SK-MEL-2 it was 60.7 µM (inactive); with HOP-62, 57.7 µM (inactive). The GI50 is > 100 µM (inactive) in the test with CCRF-CEM; > 100 µM (inactive) in the test with NCI-H226; > 100 µM (inactive) in the test with MOLT-4; > 100 µM (inactive) with A498; > 100 µM (inactive) in the test on COLO 205; 32.7 µM (inactive) with NCI-H522. Further, the GI50 with SK-MEL-28 was > 100 µM (inactive); in the test on Malme-3M, 82.2 µM (inactive).

For `COc1cc([C@@H]2c3cc4c(cc3C(N)C3COC(=O)[C@@H]32)OCO4)cc(OC)c1O` (some centres not stated), the GI50 with SW-620 was 0.301 µM (active); in the test with UO-31, 0.695 µM (active); in the test on HT-29, 0.232 µM (active); in the test with SNB-75, 0.133 µM (active); with RPMI-8226, 0.277 µM (active); with HOP-62 it was 2.88 µM (inactive). Also, the GI50 with CCRF-CEM is 0.339 µM (active); with NCI-H226 it was 0.292 µM (active); with MOLT-4, 0.266 µM (active); in the test with COLO 205, 0.13 µM (active).

Consider `COc1cc2c(cc1O)[C@@]1(Cc3ccc(OC)c(OC)c3)CCC(=O)N1CC2`, for which the GI50 was > 10 µM (inactive) with SW-620; 63.2 µM (inactive) with UO-31; > 100 µM (inactive) in the test with HT-29; > 100 µM (inactive) with SNB-75; > 100 µM (inactive) with RPMI-8226; > 100 µM (inactive) in the test on HOP-62. In addition, the GI50 is > 100 µM (inactive) in the test with CCRF-CEM; 39.8 µM (inactive) in the test with HOP-92; > 100 µM (inactive) with NCI-H226; 52 µM (inactive) with MOLT-4; > 100 µM (inactive) in the test with A498; > 100 µM (inactive) with OVCAR-5. The GI50 in the test with COLO 205 is > 100 µM (inactive); with SK-MEL-28 it was > 100 µM (inactive); in the test on Malme-3M it was 68.4 µM (inactive).

As to `Cc1cc(C)c(C2[C@H]3C(=O)N(c4ccc(Cc5ccc(N6C(=O)[C@@H]7ON(c8ccccc8)C(c8c(C)cc(C)cc8C)[C@@H]7C6=O)cc5)cc4)C(=O)[C@H]3ON2c2ccccc2)c(C)c1` (some centres not stated), the GI50 in the test on SW-620, in the test on UO-31, with HT-29, in the test with SNB-75, in the test on RPMI-8226 and in the test on SK-MEL-2 was > 100 µM (inactive) in each case. In addition, the GI50 with HOP-62, with CCRF-CEM, in the test on NCI-H226, in the test with MOLT-4, in the test on A498 and in the test with OVCAR-5 was > 100 µM (inactive) throughout. Besides, the GI50 with COLO 205, with NCI-H522, with SK-MEL-28 and with Malme-3M was > 100 µM (inactive) in each case.

Consider `COc1cccc2c1C(=O)c1c(O)c3c(c(O)c1C2=O)C[C@@](O)(C(C)=O)C[C@@H]3OC1CC([N+]([O-])(Cc2ccccc2)Cc2ccccc2)C(O)C(C)O1` (some centres not stated), for which the GI50 was 1 µM (active) in the test on SW-620; 1.27 µM (inactive) in the test on UO-31; 1.52 µM (inactive) in the test with HT-29; 1.48 µM (inactive) with SNB-75; 1.54 µM (inactive) in the test with RPMI-8226; 1.98 µM (inactive) in the test with SK-MEL-2. Moreover, the GI50 is 1.56 µM (inactive) with HOP-62; 0.399 µM (active) with CCRF-CEM; 1.52 µM (inactive) in the test on HOP-92; 0.191 µM (active) in the test on MOLT-4; 2.46 µM (inactive) in the test on A498; 1.79 µM (inactive) in the test on OVCAR-5. Besides, in the test with NCI-H522, the GI50 was 1.39 µM (inactive).

On to `CC1(C)C(c2ccccc2)=NN(O)c2ccccc21`, for which the GI50 was > 100 µM (inactive) in the test on SW-620; > 100 µM (inactive) in the test with HT-29; 86.1 µM (inactive) in the test on SNB-75; > 100 µM (inactive) with RPMI-8226; > 100 µM (inactive) in the test on SK-MEL-2; > 100 µM (inactive) in the test with HOP-62. For the same compound, the GI50 with CCRF-CEM, in the test on NCI-H226, with MOLT-4, in the test with A498, in the test with OVCAR-5 and in the test with COLO 205 was > 100 µM (inactive) throughout. Moreover, the GI50 with NCI-H522, in the test with SK-MEL-28 and in the test on Malme-3M was > 100 µM (inactive) in each case.

Turning to `CC(=O)OC(CCC1(C)OC1COc1ccc(CCNC(=O)c2ccccc2)cc1)C(C)(C)OC(C)=O` (configuration not stated), the GI50 in the test with SW-620 is > 100 µM (inactive); in the test with UO-31, 29.4 µM (inactive); in the test on HT-29, 17.4 µM (inactive); in the test on SNB-75, 32.6 µM (inactive); in the test on RPMI-8226 it was 18.6 µM (inactive); in the test with SK-MEL-2 it was 17.3 µM (inactive). The GI50 is 15.5 µM (inactive) in the test with HOP-62; 7.18 µM (inactive) in the test on CCRF-CEM; 74.6 µM (inactive) with HOP-92; > 100 µM (inactive) with NCI-H226; 4.19 µM (inactive) in the test with MOLT-4; > 100 µM (inactive) in the test with OVCAR-5. Further, the GI50 in the test on COLO 205 is 19.5 µM (inactive); in the test on NCI-H522, 22.9 µM (inactive); in the test with SK-MEL-28, 22 µM (inactive); with Malme-3M, 15.3 µM (inactive).

With `Cc1ccc(/C=C/C(=O)CCN(C)C)cc1`, the GI50 in the test with SW-620 is 16.6 µM (inactive); in the test on UO-31, 18.3 µM (inactive); in the test with HT-29 it was 18.2 µM (inactive); in the test with SNB-75 it was 20.1 µM (inactive); in the test on RPMI-8226, 19.3 µM (inactive); in the test with HOP-62, 54.5 µM (inactive). In addition, the GI50 was 24.7 µM (inactive) in the test with CCRF-CEM; 19.5 µM (inactive) with HOP-92; 19.2 µM (inactive) with NCI-H226; 23.2 µM (inactive) in the test with MOLT-4; > 100 µM (inactive) with A498; 33.8 µM (inactive) with OVCAR-5. For the same compound, the results for the GI50 in the test with COLO 205, with SK-MEL-28 and with Malme-3M were 16 µM (inactive), 19.4 µM (inactive) and 20.7 µM (inactive), respectively.

For `O=C1C(=Cc2ccc([N+](=O)[O-])o2)C(=O)N(CCc2ccccc2)S(=O)(=O)N1CCc1ccccc1`, the GI50 with SW-620 is 19.5 µM (inactive); in the test on UO-31 it was 45.3 µM (inactive); with HT-29, 33.5 µM (inactive); in the test with SNB-75 it was 37.9 µM (inactive); in the test with RPMI-8226 it was 27.4 µM (inactive); with SK-MEL-2, 16.6 µM (inactive). Also, the GI50 is 27.7 µM (inactive) in the test on CCRF-CEM; 19.3 µM (inactive) in the test on HOP-92; 24.7 µM (inactive) with NCI-H226; 19.2 µM (inactive) in the test with MOLT-4; > 100 µM (inactive) with OVCAR-5; 20.2 µM (inactive) in the test with COLO 205. Besides, the figures for the GI50 with NCI-H522, with SK-MEL-28 and in the test on Malme-3M were 19.9 µM (inactive), 14.6 µM (inactive) and 17.1 µM (inactive), respectively.

Regarding `C=C[C@@]1(O)CCCC2=C(C(=O)OCC)CC[C@]21C`, the GI50 with SW-620 is 54.7 µM (inactive); in the test with UO-31 it was > 100 µM (inactive); with HT-29, 64.4 µM (inactive); in the test with RPMI-8226, > 100 µM (inactive); in the test with SK-MEL-2, 90.8 µM (inactive); in the test on CCRF-CEM, 44.7 µM (inactive). The GI50 in the test with HOP-92 is > 100 µM (inactive); with NCI-H226 it was > 100 µM (inactive); in the test on MOLT-4, 26.1 µM (inactive); in the test with OVCAR-5, > 100 µM (inactive); in the test with COLO 205, > 100 µM (inactive); in the test on NCI-H522, > 100 µM (inactive). Moreover, the GI50 in the test on SK-MEL-28 and in the test with Malme-3M was > 100 µM (inactive) in each case.

Turning to `Nc1ccccc1Nc1ccccc1C(=O)[O-].Nc1ccccc1Nc1ccccc1C(=O)[O-].[Zn+2]`, the GI50 in the test with SW-620 is > 100 µM (inactive); in the test on UO-31, > 100 µM (inactive); with HT-29, > 100 µM (inactive); in the test with SNB-75, 17.7 µM (inactive); in the test with RPMI-8226, > 100 µM (inactive); with SK-MEL-2, 19.8 µM (inactive). For the same compound, the GI50 with HOP-62 was > 100 µM (inactive); with CCRF-CEM it was 33 µM (inactive); in the test on MOLT-4 it was > 100 µM (inactive); with A498, > 100 µM (inactive); with OVCAR-5, > 100 µM (inactive); with COLO 205, > 100 µM (inactive). Also, the figures for the GI50 in the test with NCI-H522, in the test on SK-MEL-28 and with Malme-3M were 19.7 µM (inactive), > 100 µM (inactive) and > 100 µM (inactive), respectively.

On to `O=C1CCCN(c2ccccc2)N1`, for which the GI50 with SW-620, with UO-31, with HT-29, in the test on SNB-75, in the test on RPMI-8226 and with SK-MEL-2 was > 100 µM (inactive) throughout. The GI50 in the test on HOP-62, with NCI-H226, in the test with MOLT-4, in the test with A498, in the test with OVCAR-5 and in the test with NCI-H522 was > 100 µM (inactive) in each case. The GI50 with SK-MEL-28 and in the test on Malme-3M was > 100 µM (inactive) each time.
